What was measured:
[1] = biological target: T1, porcine pancreatic amylase (Sus scrofa, UniProt P00690); assay: Amylase assay (Sigma INFINITY reagent); type: biochemical, pig; conditions: tested at 0.12 mg/ml, mean n=3
T1 construct: purchased Sigma A6255
T1 sequence (P00690 16-511): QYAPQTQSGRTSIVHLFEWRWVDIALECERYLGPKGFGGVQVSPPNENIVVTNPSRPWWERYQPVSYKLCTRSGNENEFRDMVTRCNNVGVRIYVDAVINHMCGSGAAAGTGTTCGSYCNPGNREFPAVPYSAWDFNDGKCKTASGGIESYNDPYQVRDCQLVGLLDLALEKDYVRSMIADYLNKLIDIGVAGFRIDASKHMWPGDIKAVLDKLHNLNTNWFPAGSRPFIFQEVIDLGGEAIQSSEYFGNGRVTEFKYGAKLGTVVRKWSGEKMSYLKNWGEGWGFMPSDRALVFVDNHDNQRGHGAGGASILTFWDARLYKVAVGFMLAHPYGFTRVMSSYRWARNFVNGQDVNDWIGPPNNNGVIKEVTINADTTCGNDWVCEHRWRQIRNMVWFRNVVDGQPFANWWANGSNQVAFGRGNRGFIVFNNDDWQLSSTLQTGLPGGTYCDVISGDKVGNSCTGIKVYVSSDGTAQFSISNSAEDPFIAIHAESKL
Protocol: (§1) The purified compounds and extracts were made up 2 mg/ml solutions in water using initially a drop of DMSO if required for solubility.
Sigma INFINITY Powder Reagent (Catalogue Number 568-20)
Sigma α-amylase (A6255, porcine pancreatic amylase as saline suspension), diluted to 35 units/ml. […] The rate of color formation was measured over five minutes, after which the final absorbance was measured at 405 nm as an endpoint recording.

[2] = biological target: T2, Human pancreatic lipase (Homo sapiens, UniProt P16233); assay: Lipase assay (Sigma Lipase-PS Kit); type: biochemical; conditions: same top concentration (0.15 mg/ml)
T2 construct: purchased Sigma
T2 sequence (P16233 17-465): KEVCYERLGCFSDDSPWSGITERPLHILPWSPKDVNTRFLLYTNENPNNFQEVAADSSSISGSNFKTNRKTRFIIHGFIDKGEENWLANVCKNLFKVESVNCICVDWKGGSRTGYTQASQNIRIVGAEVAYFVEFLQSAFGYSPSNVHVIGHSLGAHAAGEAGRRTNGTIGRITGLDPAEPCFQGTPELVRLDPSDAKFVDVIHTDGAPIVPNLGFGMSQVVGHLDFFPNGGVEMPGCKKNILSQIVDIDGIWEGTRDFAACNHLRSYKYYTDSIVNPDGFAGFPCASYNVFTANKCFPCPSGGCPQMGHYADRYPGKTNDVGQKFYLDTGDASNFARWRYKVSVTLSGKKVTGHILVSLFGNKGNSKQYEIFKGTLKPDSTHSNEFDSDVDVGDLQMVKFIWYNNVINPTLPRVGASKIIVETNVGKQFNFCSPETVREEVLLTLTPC
T2 sequence (P02703 23-112 partner): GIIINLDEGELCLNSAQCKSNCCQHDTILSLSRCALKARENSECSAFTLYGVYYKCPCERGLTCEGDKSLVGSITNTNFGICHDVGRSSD
Protocol: as §1
Sigma Lipase-PS Kit (Catalogue Number 805-A)
Human pancreatic lipase was diluted 1.5:5 prior to use. […] Color formation was measured at 550 nm after 30 minutes.

[3] = tested on: α-glucosidase (G5003, from S. cerevisiae); assay: α-Glucosidase assay (p-nitrophenyl-α-D-glucopyranoside); type: biochemical; conditions: tested at 0.28 mg/ml, mean n=3
Protocol: as §1

| Compound | α-amylase inhibition (in words, FIG. 2) [1] | inhibition at 150 µg/mL [2] [%] | α-glucosidase inhibition (in words, FIG. 2) [3] |
| --- | --- | --- | --- |
| COc1cc(O)c2c(=O)c(O[C@@H]3O[C@@H](C)[C@H](O)[C@@H](O)[C@H]3O)c(-c3ccc(O)c(O)c3)oc2c1 [compound 3, rhamnitrin] | inhibition to be restored |  |  |
| CCCCCCCCCCC[C@@H](C[C@@H]1OC(=O)[C@H]1CCCCCC)OC(=O)[C@H](CC(C)C)NC=O [Orlistat] |  | ≤ 60 |  |
| Oc1ccc(C=C2c3c(O)cc(O)cc3C(c3ccc(O)cc3)C2c2cc(O)ccc2O)cc1 (stereo not drawn) [compound 7, 3-(4-hydroxybenzylidene)-2-(2,5-dihydroxyphenyl)-1-(4-hydroxyphenyl)indane-4,6-diol] |  |  | fairly specific as an inhibitor |
| quercitrin-3-O″-acetate [compound 5] | inhibition to be restored |  | promoted the glucosidase activity |
| Oc1ccc(/C=C2\c3cc(O)cc(O)c3C(c3ccc(O)cc3)C2c2cc(O)cc(O)c2)cc1 (stereo not drawn) [compound 6, parthenocissin A] | good inhibition |  |  |

Reference: patent publication US8362090B2, “Methods and related compositions using specific flavonoids and indanes to reduce weight and inhibit lipase, α-amylase and α-glucosidase activity in mammals” (Gateway Health Alliances, Inc., priority 2007, dated 2013)
